# Assay results as given in ChEMBL document CHEMBL5729509, “Compounds and compositions for the treatment of neurodegenerative and inflammatory diseases” (2023).
# Legend:
# [1] = target: Kallikrein-1 (Homo sapiens, UniProt P06870); test: Inhibitory Effect on the Enzymatic Activity of KLK: Table 4: The molecules were tested in order to evaluate their possible inhibitory effect on the enzymatic activity of KLK1. The % inhibitions were determined from the residual activity of the hydrolysis of the Boc-PFR-AMC fluorogenic substrate (100 μM) by KLK1 (1.6 nM) after 15 minutes of incubation at 37° C. with each molecule at 10 μM.
# Sequence of Kallikrein-1 (P06870 whole entry): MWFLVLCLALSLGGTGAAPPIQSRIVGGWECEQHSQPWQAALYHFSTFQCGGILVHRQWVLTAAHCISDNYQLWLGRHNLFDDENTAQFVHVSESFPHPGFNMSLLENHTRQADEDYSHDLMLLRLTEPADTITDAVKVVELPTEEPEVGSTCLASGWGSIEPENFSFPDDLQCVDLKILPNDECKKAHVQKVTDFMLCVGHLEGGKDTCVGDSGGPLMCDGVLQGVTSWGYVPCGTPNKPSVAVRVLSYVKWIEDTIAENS
# [2] = target: T1, Plasminogen (Homo sapiens, UniProt P00747); test: Activities on Plasmin (Boc-QAR-AMC): In a typical test, 100 μl of reaction medium contains the buffer, 1 μl of recombinant enzyme, 1 μl of substrate (Boc-QAR-AMC) and 1 μl of the compound tested at 10 μM (in the control, 1 μl of DMSO). In each well, the inhibitor is deposited in the presence of the enzyme-buffer mixture for preincubation for 15 minutes at 37° C. The enzymatic reaction is then …
# T1 sequence (P00747 97-580 limits assumed): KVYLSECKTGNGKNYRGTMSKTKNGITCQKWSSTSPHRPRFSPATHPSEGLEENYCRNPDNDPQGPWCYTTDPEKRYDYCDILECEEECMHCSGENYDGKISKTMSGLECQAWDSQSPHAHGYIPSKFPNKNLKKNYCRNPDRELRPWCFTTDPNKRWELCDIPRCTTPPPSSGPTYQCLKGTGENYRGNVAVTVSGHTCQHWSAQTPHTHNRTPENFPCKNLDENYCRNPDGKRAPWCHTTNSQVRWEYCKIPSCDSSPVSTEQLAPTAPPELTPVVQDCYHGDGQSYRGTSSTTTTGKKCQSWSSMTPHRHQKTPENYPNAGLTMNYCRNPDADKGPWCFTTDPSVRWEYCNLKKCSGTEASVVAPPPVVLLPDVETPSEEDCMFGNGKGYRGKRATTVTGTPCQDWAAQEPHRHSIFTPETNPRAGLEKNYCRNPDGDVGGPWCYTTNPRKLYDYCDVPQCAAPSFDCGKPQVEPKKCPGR
# T1 sequence (P00747 581-810 limits assumed): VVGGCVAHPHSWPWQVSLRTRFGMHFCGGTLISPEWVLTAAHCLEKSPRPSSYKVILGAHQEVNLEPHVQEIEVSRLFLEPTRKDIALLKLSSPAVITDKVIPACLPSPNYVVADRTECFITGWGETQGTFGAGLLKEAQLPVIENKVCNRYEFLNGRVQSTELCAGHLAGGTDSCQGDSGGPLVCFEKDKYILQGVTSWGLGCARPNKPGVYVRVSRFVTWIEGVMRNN
# Description: Activities on Plasmin (Boc-QAR-AMC): In a typical test, 100 μl of reaction medium contains the buffer, 1 μl of recombinant enzyme, 1 μl of substrate (Boc-QAR-AMC) and 1 μl of the compound tested at 10 μM (in the control, 1 μl of DMSO). In each well, the inhibitor is deposited in the presence of the enzyme-buffer mixture for preincubation for 15 minutes at 37° C. The enzymatic reaction is then triggered by adding the buffer-substrate mixture (100 μM). The release of the 7-amino-4-methylcoumarin fluorescent group (AMC, λex=360 nm, λem=460 nm) following the hydrolysis of the substrate catalyzed by the enzyme is monitored for 30 minutes at 37° C. using a FLUOstar spectrofluorimeter.
# [3] = target: T2, Kallikrein-6 (Homo sapiens, UniProt Q92876); test: Activities on KLK6 (Boc-QAR-AMC): In a typical test, 100 μl of reaction medium contains the buffer, 1 μl of recombinant enzyme, 1 μl of substrate (Boc-QAR-AMC) and 1 μl of the compound tested at 10 μM (in the control, 1 μl of DMSO). In each well, the inhibitor is deposited in the presence of the enzyme-buffer mixture for preincubation for 15 minutes at 37° C. The enzymatic reaction is then …
# Description: Activities on KLK6 (Boc-QAR-AMC): In a typical test, 100 μl of reaction medium contains the buffer, 1 μl of recombinant enzyme, 1 μl of substrate (Boc-QAR-AMC) and 1 μl of the compound tested at 10 μM (in the control, 1 μl of DMSO). In each well, the inhibitor is deposited in the presence of the enzyme-buffer mixture for preincubation for 15 minutes at 37° C. The enzymatic reaction is then triggered by adding the buffer-substrate mixture (100 μM). The release of the 7-amino-4-methylcoumarin fluorescent group (AMC, λex=360 nm, λem=460 nm) following the hydrolysis of the substrate catalyzed by the enzyme is monitored for 30 minutes at 37° C. using a FLUOstar spectrofluorimeter.
# [4] = target: T2, Kallikrein-6; test: Activities on KLK6 (PAR2): In a typical test, 100 μl of reaction medium contains the buffer, 1 μl of recombinant enzyme, 1 μl of substrate (PAR2) and 1 μl of the compound tested at 10 μM (in the control, 1 μl of DMSO). In each well, the inhibitor is deposited in the presence of the enzyme-buffer mixture for preincubation for 15 minutes at 37° C. The enzymatic reaction is then triggered by adding …
# Description: Activities on KLK6 (PAR2): In a typical test, 100 μl of reaction medium contains the buffer, 1 μl of recombinant enzyme, 1 μl of substrate (PAR2) and 1 μl of the compound tested at 10 μM (in the control, 1 μl of DMSO). In each well, the inhibitor is deposited in the presence of the enzyme-buffer mixture for preincubation for 15 minutes at 37° C. The enzymatic reaction is then triggered by adding the buffer-substrate mixture (100 μM). The release of the 7-amino-4-methylcoumarin fluorescent group (AMC, λex=360 nm, λem=460 nm) following the hydrolysis of the substrate catalyzed by the enzyme is monitored for 30 minutes at 37° C. using a FLUOstar spectrofluorimeter.
# [5] = target: T2, Kallikrein-6; test: Activities on KLK6 (MBP3): In a typical test, 100 μl of reaction medium contains the buffer, 1 μl of recombinant enzyme, 1 μl of substrate (MBP3) and 1 μl of the compound tested at 10 μM (in the control, 1 μl of DMSO). In each well, the inhibitor is deposited in the presence of the enzyme-buffer mixture for preincubation for 15 minutes at 37° C. The enzymatic reaction is then triggered by adding …
# Description: Activities on KLK6 (MBP3): In a typical test, 100 μl of reaction medium contains the buffer, 1 μl of recombinant enzyme, 1 μl of substrate (MBP3) and 1 μl of the compound tested at 10 μM (in the control, 1 μl of DMSO). In each well, the inhibitor is deposited in the presence of the enzyme-buffer mixture for preincubation for 15 minutes at 37° C. The enzymatic reaction is then triggered by adding the buffer-substrate mixture (100 μM). The release of the 7-amino-4-methylcoumarin fluorescent group (AMC, λex=360 nm, λem=460 nm) following the hydrolysis of the substrate catalyzed by the enzyme is monitored for 30 minutes at 37° C. using a FLUOstar spectrofluorimeter.
# [6] = target: T1, Plasminogen; test: Activities on Plasmin (PAR4): In a typical test, 100 μl of reaction medium contains the buffer, 1 μl of recombinant enzyme, 1 μl of substrate (PAR4) and 1 μl of the compound tested at 10 μM (in the control, 1 μl of DMSO). In each well, the inhibitor is deposited in the presence of the enzyme-buffer mixture for preincubation for 15 minutes at 37° C. The enzymatic reaction is then triggered by …
# Description: Activities on Plasmin (PAR4): In a typical test, 100 μl of reaction medium contains the buffer, 1 μl of recombinant enzyme, 1 μl of substrate (PAR4) and 1 μl of the compound tested at 10 μM (in the control, 1 μl of DMSO). In each well, the inhibitor is deposited in the presence of the enzyme-buffer mixture for preincubation for 15 minutes at 37° C. The enzymatic reaction is then triggered by adding the buffer-substrate mixture (100 μM). The release of the 7-amino-4-methylcoumarin fluorescent group (AMC, λex=360 nm, λem=460 nm) following the hydrolysis of the substrate catalyzed by the enzyme is monitored for 30 minutes at 37° C. using a FLUOstar spectrofluorimeter.
compound,measurement,setting,value
Cc1ccc(C(=O)Nc2ccc(CN)cc2)c(O)c1,IC50,[1],39.3 µM
same,IC50,[2],12.5 µM
same,Ki,[2],4.66 µM
same,IC50,[3],5.42 µM
same,Ki,[3],1.92 µM
same,IC50,[4],5.06 µM
same,IC50,[5],8.34 µM
NCc1ccc(NC(=O)c2cc3ccccc3cc2O)cc1,IC50,[1],5.9 µM
same,IC50,[2],3.75 µM
same,IC50,[6],3.25 µM
NCc1ccc(NC(=O)c2ccc3ccccc3c2O)cc1,IC50,[3],1.5 µM
same,Ki,[3],2.26 µM
same,IC50,[4],2.63 µM
same,IC50,[5],7.89 µM
same,IC50,[6],4.92 µM
COc1ccc2c(O)c(C(=O)Nc3ccc(CN)cc3)ccc2c1,IC50,[1],30.7 µM
same,IC50,[2],2.72 µM
same,Ki,[2],2.16 µM
CC(C)c1ccc(C(=O)Nc2ccc(CN)cc2)c(O)c1,Ki,[2],0.67 µM
same,IC50,[3],1.56 µM
same,Ki,[3],1.75 µM
